Patent US20100204119A1, “4-AMINO-5-OXO-7,8-DIHYDROPYRIMIDO[5,4-F][1,4]OXAZEPIN-6(5H)-YL PHENYL DERIVATIVES” (Pfizer Inc, priority 2009, published 2010)

Biological target: T1, Human full-length diacylglycerol:acylCoA acyltransferase 1 (DGAT-1) (Homo sapiens, UniProt O75907)
T1 sequence (O75907 1-488): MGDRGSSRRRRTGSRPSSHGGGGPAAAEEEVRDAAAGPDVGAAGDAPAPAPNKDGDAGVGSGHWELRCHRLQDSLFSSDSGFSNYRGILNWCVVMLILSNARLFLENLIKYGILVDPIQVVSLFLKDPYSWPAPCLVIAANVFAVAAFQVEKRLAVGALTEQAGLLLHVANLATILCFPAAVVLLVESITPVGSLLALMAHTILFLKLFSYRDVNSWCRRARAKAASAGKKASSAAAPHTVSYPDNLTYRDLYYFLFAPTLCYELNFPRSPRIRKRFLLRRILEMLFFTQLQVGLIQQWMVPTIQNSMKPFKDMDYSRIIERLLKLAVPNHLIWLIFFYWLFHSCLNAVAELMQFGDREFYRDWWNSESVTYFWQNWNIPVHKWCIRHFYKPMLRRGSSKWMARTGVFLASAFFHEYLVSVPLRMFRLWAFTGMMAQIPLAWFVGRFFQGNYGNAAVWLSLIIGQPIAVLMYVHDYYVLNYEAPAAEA
Assay: In vitro assay for inhibition of DGAT-1 activity (DGAT 1 Reduced Microsome Multidose Assay)
Settings: average where n > 1

[1] = Trial 2 Human IC50, Trial 2: as Trial 4 except eleven concentrations of inhibitor instead of eight
[2] = Trial 3 Human IC50, Trial 3: as Trial 2 except compounds serially diluted in a different laboratory
[3] = Trial 4 Human IC50, Trial 4: eight concentrations of inhibitor, microsomes 5 μg/mL
[4] = Trial 1 Human IC50, Trial 1: as Trial 4 except microsomes at 25 μg/mL instead of 5 μg/mL

Protocol: Human full-length diacylglycerol:acylCoA acyltransferase 1 (DGAT-1) was expressed in Sf9 insect cells which are then lysed and a crude membrane fraction (105,000×g pellet) was prepared.
Inhibitors in DMSO were pre-incubated with membranes before initiating the DGAT-1 reaction by the addition of decanoylCoA. […] The inhibitors were present at a range of eight concentrations to generate an apparent IC50 for each compound. […] Specifically, the eight concentrations used were 3 μM, 1 μM, 300 nM, 100 nM, 30 nM, 10 nM, 3 nM and 1 nM.
The reactions were allowed to proceed for 1.5 hours at room temperature and then terminated by the addition of 20 μl of EDTA (40 mM). Reaction mixture is then mixed by trituration with 30 μl of Microscint™-E (Perkin Elmer). […] Four separate trials were conducted. The method of analysis of Trial 1 was the same as Trial 4 (described above) except microsomes were utilized at 25 μg/mL instead of 5 μg/mL. The method of analysis of Trial 2 was the same as Trial 4 (described above) except eleven (11) concentrations of inhibitor were employed instead of eight (8). The method of analysis of Trial 3 was the same as Trial 2 except the compounds were serially diluted in a different laboratory.
Where this DGAT-1 inhibition assay was performed on a compound more than once, an average is provided for that compound.

Structure (SMILES)	IC50 [3]	IC50 [4]	also measured
Nc1ncnc2c1C(=O)N(c1ccc(C3CCN(C(=O)CC4CCCC4)CC3)cc1)CCO2 [Example 7AE]	–	–	IC50 [1]: 0.0412 µM; IC50 [2]: 0.0923 µM
CC(C)Cc1ccc(N2C[C@@H](C)Oc3ncnc(N)c3C2=O)cc1 [Example 1Y, (8R)-4-amino-6-(4-isobutylphenyl)-8-methyl-7,8-dihydropyrimido[5,4-f]-[1,4]oxazepin-5(6H)-one]	0.00678 µM	–	–
CC(c1cccnc1)N(C)C(=O)C[C@H]1CC[C@H](c2ccc(N3CCOc4ncnc(N)c4C3=O)cc2)CC1 (some centres unmarked) [Example 6AQ]	–	0.0875 µM	–
CC(C)[C@H](O)C(=O)N1CCC(c2ccc(N3CCOc4ncnc(N)c4C3=O)cc2)CC1 [Example 7U]	–	–	IC50 [1]: 0.205 µM; IC50 [2]: 0.297 µM
COc1nc(N)c2c(n1)O[C@H](C)CN(c1ccc(C(C)(C)C)cc1)C2=O [Example 1N]	0.0445 µM	–	–
Nc1ncnc2c1C(=O)N(c1ccc(C3CCN(C(=O)Cc4ccccc4)CC3)cc1)CCO2 [Example 7Y]	–	–	IC50 [1]: 0.0457 µM; IC50 [2]: 0.0986 µM
CC(C)(O)CC[C@H]1CC[C@H](c2ccc(N3CCOc4ncnc(N)c4C3=O)cc2)CC1 [Example 1A-1]	–	0.104 µM	–
C[C@@H]1CN(c2ccc3c(c2)CCC3)C(=O)c2c(N)ncnc2O1 [Example 1S]	< 0.0107 µM	–	–
Nc1ncnc2c1C(=O)N(c1ccc(C3CCN(C(=O)CC4CCCOC4)CC3)cc1)CCO2 (centres unmarked) [Example 7E]	–	–	IC50 [1]: 0.196 µM; IC50 [2]: 0.3 µM
CN(C(=O)C[C@H]1CC[C@H](c2ccc(N3CCOc4ncnc(N)c4C3=O)cc2)CC1)C1CCOCC1 [Example 6H]	–	0.0535 µM	–
N#CC1CCN(C(=O)C[C@H]2CC[C@H](c3ccc(N4CCOc5ncnc(N)c5C4=O)cc3)CC2)CC1 [Example 6G]	–	0.0501 µM	–
CC1(O)CCN(C(=O)C[C@H]2CC[C@H](c3ccc(N4CCOc5ncnc(N)c5C4=O)cc3)CC2)CC1 [Example 6AP]	–	0.107 µM	–
CCOC(C)(C)c1ccc(N2C[C@@H](C)Oc3ncnc(N)c3C2=O)cc1 [Example 1AK, (8R)-4-amino-6-[4-(1-ethoxy-1-methylethyl)phenyl]-8-methyl-7,8-dihydropyrimido[5,4-f][1,4]oxazepin-5(6H)-one]	0.0423 µM	–	–
CN(C(=O)C[C@H]1CC[C@H](c2ccc(N3CCOc4ncnc(N)c4C3=O)cc2)CC1)[C@H]1CCCC[C@@H]1O [Example 6AG]	–	0.0528 µM	–
CC(O)c1ccc(N2C[C@@H](C)Oc3ncnc(N)c3C2=O)cc1 (some centres unmarked) [Example 1W]	0.146 µM	–	–
C[C@@H]1CN(c2ccc(C3(C(N)=O)CCCCC3)cc2)C(=O)c2c(N)ncnc2O1 [Example 1AE, 1-{4-[(8R)-4-amino-8-methyl-5-oxo-7,8-dihydropyrimido[5,4-f][1,4]oxazepin-6(5H)-yl]phenyl}cyclohexanecarboxamide]	0.0824 µM	–	–
CN(C)C(=O)CN(C)C(=O)C[C@H]1CC[C@H](c2ccc(N3CCOc4ncnc(N)c4C3=O)cc2)CC1 [Example 6AT]	–	0.161 µM	–
Cc1noc(C[C@H]2CC[C@H](c3ccc(N4C[C@@H](C)Oc5ncnc(N)c5C4=O)cc3)CC2)n1 [Example 2C]	0.0081 µM	–	–
CC(C)c1ccc(N2C[C@@H](C)Oc3ncnc(N)c3C2=O)cc1 [Example 1K, (8R)-4-amino-6-(4-isopropylphenyl)-8-methyl-7,8-dihydropyrimido[5,4-f]-[1,4]oxazepin-5(6H)-one]	0.0176 µM	–	–
Nc1ncnc2c1C(=O)N(c1ccc([C@H]3CC[C@H](CC(=O)N4CCCCC4CCO)CC3)cc1)CCO2 (some centres unmarked) [Example 6AY]	–	0.0853 µM	–
CC(F)(F)CN(CCO)C(=O)C[C@H]1CC[C@H](c2ccc(N3CCOc4ncnc(N)c4C3=O)cc2)CC1 [Example 6AD]	–	0.0421 µM	–
Cc1ocnc1C(=O)N1CCC(c2ccc(N3CCOc4ncnc(N)c4C3=O)cc2)CC1 [Example 7G]	–	–	IC50 [1]: 0.0882 µM; IC50 [2]: 0.29 µM
COC(=O)c1ccc(N2C[C@@H](C)Oc3ncnc(N)c3C2=O)cc1 [Example 1J, Methyl 4-[(8R)-4-amino-8-methyl-5-oxo-7,8-dihydropyrimido[5,4-f][1,4]oxazepin-6(5H)-yl]benzoate]	0.161 µM	–	–
Nc1ncnc2c1C(=O)N(c1ccc(C3CCN(C(=O)Cc4ncccn4)CC3)cc1)CCO2 [Example 7N]	–	–	IC50 [1]: 0.119 µM; IC50 [2]: 0.234 µM
Nc1ncnc2c1C(=O)N(c1ccc([C@H]3CC[C@H](CC(=O)N4CCC(F)(F)CC4)CC3)cc1)CCO2 [Example 6L]	–	0.105 µM	–

Structure (SMILES)	IC50 [3]	IC50 [4]	also measured
C[C@@H]1CN(c2ccc(C(C)(C)C)cc2)C(=O)c2c(N)ncnc2O1 [Example 1I, (8R)-4-amino-6-(4-tert-butylphenyl)-8-methyl-7,8-dihydropyrimido[5,4-f]-[1,4]oxazepin-5(6H)-one]	0.0163 µM	–	IC50 [1]: 0.0184 µM; IC50 [2]: 0.0337 µM
Nc1ncnc2c1C(=O)N(c1ccc(C3CCN(C(=O)C4CCCO4)CC3)cc1)CCO2 (centres unmarked) [Example 7X]	–	–	IC50 [1]: 0.0884 µM; IC50 [2]: 0.157 µM
Cc1ccc(N2C[C@@H](C)Oc3ncnc(N)c3C2=O)cc1 [Example 1P, (8R)-4-amino-8-methyl-6-(4-methylphenyl)-7,8-dihydropyrimido[5,4-f]-[1,4]oxazepin-5(6H)-one]	0.0528 µM	–	–
C[C@@H]1CN(c2ccc(C(C)(C)C(=O)O)cc2)C(=O)c2c(N)ncnc2O1 [Example 1AO, 2-{4-[(8R)-4-amino-8-methyl-5-oxo-7,8-dihydropyrimido[5,4-f][1,4]oxazepin-6(5H)-yl]phenyl}-2-methylpropanoic acid]	0.02 µM	–	–
Cc1cc(C(=O)N2CCC(c3ccc(N4CCOc5ncnc(N)c5C4=O)cc3)CC2)no1 [Example 7V]	–	–	IC50 [1]: 0.113 µM; IC50 [2]: 0.224 µM
CC(=O)N[C@@H]1CCN(C(=O)C[C@H]2CC[C@H](c3ccc(N4CCOc5ncnc(N)c5C4=O)cc3)CC2)C1 [Example 6S]	–	0.192 µM	–
CC1(O)CCN(C(=O)C[C@H]2CC[C@H](c3ccc(N4CCOc5ncnc(N)c5C4=O)cc3)CC2)C1 (some centres unmarked) [Example 6AR]	–	0.0853 µM	–
CCCN(CCO)C(=O)C[C@H]1CC[C@H](c2ccc(N3CCOc4ncnc(N)c4C3=O)cc2)CC1 [Example 6AJ]	–	0.0655 µM	–
COC(C)(C)c1ccc(N2C[C@@H](C)Oc3ncnc(N)c3C2=O)cc1 [Example 1AL, (8R)-4-amino-6-[4-(1-methoxy-1-methylethyl)phenyl]-8-methyl-7,8-dihydropyrimido[5,4-f][1,4]oxazepin-5(6H)-one]	0.0346 µM	–	–
Nc1ncnc2c1C(=O)N(c1ccc([C@H]3CC[C@H](CCO)CC3)cc1)CCO2 [Example 1E, 4-amino-6-{4-[trans-4-(2-hydroxyethyl)cyclohexyl]phenyl}-7,8-dihydropyrimido[5,4-f][1,4]oxazepin-5(6H)-one]	–	–	IC50 [1]: 0.0141 µM; IC50 [2]: 0.00975 µM
C[C@@H]1CN(c2ccc(C3(C(N)=O)CCC3)cc2)C(=O)c2c(N)ncnc2O1 [Example 1AH, 1-{4-[(8R)-4-amino-8-methyl-5-oxo-7,8-dihydropyrimido[5,4-f][1,4]oxazepin-6(5H)-yl]phenyl}cyclobutanecarboxamide]	0.0782 µM	–	–
Nc1ncnc2c1C(=O)N(c1ccc([C@H]3CC[C@H](CC(=O)N4CC(F)C4)CC3)cc1)CCO2 [Example 6AM]	–	0.139 µM	–
C[C@@H]1CN(c2ccc(C(O)(C(F)(F)F)C(F)(F)F)cc2)C(=O)c2c(N)ncnc2O1 [Example 1V]	0.0395 µM	–	–
COC(C)(C)Cc1ccc(N2C[C@@H](C)Oc3ncnc(N)c3C2=O)cc1 [Example 1AG]	0.0452 µM	–	–
C[C@@H]1CN(c2ccc(C(C)(C)C(N)=O)cc2)C(=O)c2c(N)ncnc2O1 [Example 1AR]	0.024 µM	–	–
Nc1ncnc2c1C(=O)N(c1ccc([C@H]3CC[C@H](CC(=O)N4CCC(CO)C4)CC3)cc1)CCO2 (some centres unmarked) [Example 6T]	–	0.125 µM	–
Cc1ncoc1C(=O)N1CCC(c2ccc(N3CCOc4ncnc(N)c4C3=O)cc2)CC1 [Example 7K]	–	–	IC50 [1]: 0.13 µM; IC50 [2]: 0.258 µM
C[C@@H]1CN(c2ccc(CC(N)=O)cc2)C(=O)c2c(N)ncnc2O1 [Example 1AM, (8R)-2-(4-(4-amino-8-methyl-5-oxo-7,8-dihydropyrimido[5,4-f][1,4]oxazepin-6(5H)-yl)phenyl)acetamide]	0.313 µM	–	–
CC(c1ccncc1)N(C)C(=O)C[C@H]1CC[C@H](c2ccc(N3CCOc4ncnc(N)c4C3=O)cc2)CC1 (some centres unmarked) [Example 6AU]	–	0.0755 µM	–
COCC(C)(C)c1ccc(N2C[C@@H](C)Oc3ncnc(N)c3C2=O)cc1 [Example 1AA]	0.0427 µM	–	–
C[C@@H]1CN(c2ccc(C(C)(C)CO)cc2)C(=O)c2c(N)ncnc2O1 [Example 1AQ]	0.031 µM	–	–
C[C@@H]1CN(c2ccc(C(C)(C)C(F)(F)F)cc2)C(=O)c2c(N)ncnc2O1 [Example 1Z, (8R)-4-amino-8-methyl-6-[4-(2,2,2-trifluoro-1,1-dimethylethyl)phenyl]-7,8-dihydropyrimido[5,4-f][1,4]oxazepin-5(6H)-one]	0.0143 µM	–	–
CCC(O)(CC)c1ccc(N2C[C@@H](C)Oc3ncnc(N)c3C2=O)cc1 [Example 1AP, (8R)-4-Amino-6-[4-(1-ethyl-1-hydroxypropyl)phenyl]-8-methyl-7,8-dihydropyrimido[5,4-f][1,4]oxazepin-5(6H)-one]	0.0294 µM	–	–
Nc1ncnc2c1C(=O)N(c1ccc([C@H]3CC[C@H](CC(=O)N4CCCC(CO)C4)CC3)cc1)CCO2 (some centres unmarked) [Example 6M]	–	0.0457 µM	–
CCN(Cc1nccn1C)C(=O)C[C@H]1CC[C@H](c2ccc(N3CCOc4ncnc(N)c4C3=O)cc2)CC1 [Example 6AS]	–	0.0474 µM	–
